Results published in patent US11999727B2 (Tango Therapeutics, Inc., priority 2020, dated 2024).
pIC50: −log10 of the molar value. Read-outs that look alike come from different tables or passages of the source.

Experiments:
[1] = biological target: T1, PRMT5 (Homo sapiens, UniProt O14744); assay: PRMT5 biochemical IC50 assay with SAM as cofactor; conditions: PRMT5, SAM as cofactor; read-out: SAM IC50
T1 construct: purchased Viva (custom protein)

[2] = tested on: HAP1 MTAP-deleted cell line; assay: Viability assay, MTAP-deleted cell line; format: cell-based; conditions: Homo sapiens, HAP1, viability assay, MTAP-deleted cell line; read-out: HAP1 MTAP deleted viability
From the text: Table 1 additionally indicates IC50 values in a viability assay for the MTAP-deleted cell line (column 10), indicating the effect of treatment with compound on cell survival.

[3] = tested on: HAP1 MTAP-deleted cell line; assay: SDMA in-cell western assay, HAP1 MTAP-deleted; format: cell-based; conditions: for pIC50: HAP1 MTAP-deleted, read-out: HAP1 MTAP deleted IC50; for MTAP intact/deleted ratio: IC50 ratio HAP1 MTAP-intact / HAP1 MTAP-deleted
Method in brief: (§1)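 Compounds were tested in HAP1 cells differing only in MTAP status (endogenous expression versus null). Cellular SDMA levels were then measured by in-cell western, giving an IC50 in each background.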

[4] = biological target: T1, PRMT5; assay: PRMT5 biochemical IC50 assay with MTA as cofactor; conditions: PRMT5, MTA as cofactor; read-out: MTA IC50
[5] = tested on: HAP1 MTAP-intact cell line; assay: SDMA in-cell western assay, HAP1 MTAP-intact; format: cell-based; conditions: HAP1 MTAP-intact, read-out: MTAP HAP1 intact IC50
Method in brief: as §1

[6] = biological target: T1, PRMT5; assay: PRMT5 biochemical IC50 assay with no cofactor; conditions: PRMT5, no cofactor; read-out: No Cofactor/rel IC50
From the text: Table 1 indicates IC50 values (μM) against PRMT5 for exemplary compounds in the presence of SAM as cofactor, with no cofactor, and with MTA as cofactor, respectively (columns 4-6). […] Ki values can be calculated from the IC50 values as described in the Examples section. As detailed in the Examples section, for the assay performed in the presence of SAM, IC50=Ki×1.5 (Ki=IC50/1.5).

[7] = Homo sapiens, HAP1, SDMA in-cell western

T1 sequence (O14744 whole entry): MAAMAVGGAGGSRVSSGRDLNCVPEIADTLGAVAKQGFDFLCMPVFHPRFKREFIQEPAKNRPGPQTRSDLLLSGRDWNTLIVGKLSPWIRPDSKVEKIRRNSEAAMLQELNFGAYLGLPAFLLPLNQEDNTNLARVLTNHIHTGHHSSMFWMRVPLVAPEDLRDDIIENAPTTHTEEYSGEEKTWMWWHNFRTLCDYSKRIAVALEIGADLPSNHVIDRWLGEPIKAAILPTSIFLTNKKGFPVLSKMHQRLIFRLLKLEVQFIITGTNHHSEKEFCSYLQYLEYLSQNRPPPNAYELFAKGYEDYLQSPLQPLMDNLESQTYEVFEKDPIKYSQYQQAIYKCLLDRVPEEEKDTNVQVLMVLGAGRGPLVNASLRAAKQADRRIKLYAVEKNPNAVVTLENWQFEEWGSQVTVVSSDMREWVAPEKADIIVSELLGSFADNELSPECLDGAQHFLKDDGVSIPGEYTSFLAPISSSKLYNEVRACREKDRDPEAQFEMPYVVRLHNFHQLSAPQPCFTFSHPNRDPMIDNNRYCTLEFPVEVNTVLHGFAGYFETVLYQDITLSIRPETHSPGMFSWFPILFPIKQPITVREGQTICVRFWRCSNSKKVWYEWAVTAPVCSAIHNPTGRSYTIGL
T1 sequence (Q9BQA1 whole entry partner): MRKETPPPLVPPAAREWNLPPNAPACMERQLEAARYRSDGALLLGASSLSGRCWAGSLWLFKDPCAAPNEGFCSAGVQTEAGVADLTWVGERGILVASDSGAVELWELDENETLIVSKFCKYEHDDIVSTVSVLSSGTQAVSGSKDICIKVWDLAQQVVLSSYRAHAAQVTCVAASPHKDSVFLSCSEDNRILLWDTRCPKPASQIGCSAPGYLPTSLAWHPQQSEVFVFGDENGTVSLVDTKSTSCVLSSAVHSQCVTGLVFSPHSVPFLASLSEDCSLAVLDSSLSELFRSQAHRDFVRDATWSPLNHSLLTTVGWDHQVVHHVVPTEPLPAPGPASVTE

Structure (SMILES) | pIC50 [1] | pIC50 [2] | pIC50 [3, 7] | MTAP intact/deleted ratio ([3]; SDMA in-cell western) | pIC50 [4] | pIC50 [5, 7] | pIC50 [6] | pIC50 ([3]; SDMA in-cell western) | pIC50 ([5]; SDMA in-cell western)
C[C@@H]1CC[C@@H](c2ccc3c(c2)C[C@H](C)O3)N(C(=O)C(=O)Nc2cncc(C(N)=O)c2)C1 (single isomer, unassigned) [Compound 345] | 6.30 to 7.30 | 5.00 to 6.00 | 6.00 to 7.00 | A (an IC50 ratio greater than or equal to 10 fold) | > 7.30 | < 6.00 | 6.30 to 7.30 |  | 
CC(=O)N1CCC(c2cccc([C@@H]3CC[C@@H](C)CN3C(=O)C(=O)Nc3cncc(C(N)=O)c3)c2)CC1 (single isomer, unassigned) [Compound 346] | 6.30 to 7.30 | 5.00 to 6.00 | 6.00 to 7.00 | A (an IC50 ratio greater than or equal to 10 fold) | > 7.30 | < 6.00 | 6.30 to 7.30 |  | 
COc1ncc(NC(=O)C(=O)N2CCCCC2C2CCCCC2)cc1C(N)=O (single isomer, unassigned) [Compound 347, 5-(2-(2-cyclohexylpiperidin-1-yl)-2-oxoacetamido)-2-methoxynicotinamide] | 6.30 to 7.30 | 5.00 to 6.00 |  | A (an IC50 ratio greater than or equal to 10 fold) | > 7.30 |  | 6.30 to 7.30 | 6.00 to 7.00 | < 6.00
CNc1cccc([C@@H]2CC[C@@H](C)CN2C(=O)C(=O)Nc2cncc(C(N)=O)c2)c1 (single isomer, unassigned) [Compound 348] | 6.30 to 7.30 | 5.00 to 6.00 | > 7.00 | A (an IC50 ratio greater than or equal to 10 fold) | > 7.30 | < 6.00 | 6.30 to 7.30 |  | 
C[C@H]1CC[C@H](c2ccc(O)nc2)N(C(=O)C(=O)Nc2cncc(C(N)=O)c2)C1 (single isomer, unassigned) [Compound 350] | 6.30 to 7.30 | < 5.00 | < 6.00 | C (an IC50 ratio of less than 3 fold) | > 7.30 | < 6.00 | 6.30 to 7.30 |  | 
C[C@@H]1CC[C@@H](c2ccc(O)nc2)N(C(=O)C(=O)Nc2cncc(C(N)=O)c2)C1 (single isomer, unassigned) [Compound 351] | < 6.30 | < 5.00 | < 6.00 | C (an IC50 ratio of less than 3 fold) | < 6.30 | < 6.00 | < 6.30 |  | 
N#C[C@H]1CCN(C(=O)C(=O)Nc2cncc(C(N)=O)c2)[C@@H](c2ccccc2)C1 (single isomer, unassigned) [Compound 352] | 6.30 to 7.30 | < 5.00 | 6.00 to 7.00 | A (an IC50 ratio greater than or equal to 10 fold) | > 7.30 | < 6.00 | 6.30 to 7.30 |  | 
N#C[C@@H]1CCN(C(=O)C(=O)Nc2cncc(C(N)=O)c2)[C@H](c2ccccc2)C1 (single isomer, unassigned) [Compound 353] | < 6.30 | < 5.00 | < 6.00 | C (an IC50 ratio of less than 3 fold) | < 6.30 | < 6.00 | < 6.30 |  | 
C[C@H]1CC[C@H](c2ccc(O)c(F)c2)N(C(=O)C(=O)Nc2cncc(C(N)=O)c2)C1 (single isomer, unassigned) [Compound 354] | 6.30 to 7.30 | > 6.00 | > 7.00 | A (an IC50 ratio greater than or equal to 10 fold) | > 7.30 | 6.00 to 7.00 | > 7.30 |  | 
C[C@@H]1CC[C@@H](c2ccc(O)c(F)c2)N(C(=O)C(=O)Nc2cncc(C(N)=O)c2)C1 (single isomer, unassigned) [Compound 355] | < 6.30 | < 5.00 | < 6.00 | C (an IC50 ratio of less than 3 fold) | < 6.30 | < 6.00 | < 6.30 |  | 
CNc1cccc([C@H]2CCCCN2C(=O)C(=O)Nc2cnc(N)c(C)c2)c1 (single isomer, unassigned) [Compound 356] | 6.30 to 7.30 | 5.00 to 6.00 | > 7.00 | A (an IC50 ratio greater than or equal to 10 fold) | > 7.30 | < 6.00 | 6.30 to 7.30 |  | 
CNc1cccc([C@@H]2CCCCN2C(=O)C(=O)Nc2cnc(N)c(C)c2)c1 (single isomer, unassigned) [Compound 357] | 6.30 to 7.30 | < 5.00 | 6.00 to 7.00 | A (an IC50 ratio greater than or equal to 10 fold) | 6.30 to 7.30 | < 6.00 | < 6.30 |  | 
CN(C)c1cccc([C@@H]2CCCCN2C(=O)C(=O)Nc2cncc(C(N)=O)c2)c1 (single isomer, unassigned) [Compound 365] | 6.30 to 7.30 | 5.00 to 6.00 | > 7.00 | A (an IC50 ratio greater than or equal to 10 fold) | > 7.30 | < 6.00 | 6.30 to 7.30 |  | 
CN(C)c1cccc([C@H]2CCCCN2C(=O)C(=O)Nc2cncc(C(N)=O)c2)c1 (single isomer, unassigned) [Compound 366] | < 6.30 | < 5.00 | < 6.00 | C (an IC50 ratio of less than 3 fold) | 6.30 to 7.30 | < 6.00 | < 6.30 |  | 
Cc1c(NC(=O)C(=O)N2C[C@H](C)CC[C@H]2c2ccccc2)cnc(N)c1C (single isomer, unassigned) [Compound 367] | < 6.30 | < 5.00 | < 6.00 | C (an IC50 ratio of less than 3 fold) | 6.30 to 7.30 | < 6.00 | < 6.30 |  | 
Cc1c(NC(=O)C(=O)N2C[C@@H](C)CC[C@@H]2c2ccccc2)cnc(N)c1C (single isomer, unassigned) [Compound 368] | 6.30 to 7.30 | 5.00 to 6.00 | > 7.00 | A (an IC50 ratio greater than or equal to 10 fold) | > 7.30 | < 6.00 | 6.30 to 7.30 |  | 
COc1ncc(NC(=O)C(=O)N2C[C@@H](C)CC[C@@H]2C2CCCCC2)cc1C(N)=O (single isomer, unassigned) [Compound 369] | 6.30 to 7.30 | 5.00 to 6.00 | 6.00 to 7.00 | A (an IC50 ratio greater than or equal to 10 fold) | > 7.30 | < 6.00 | 6.30 to 7.30 |  | 
C[C@H]1CC[C@H](c2cccc(N(C)C)c2)N(C(=O)C(=O)Nc2cncc(C(N)=O)c2)C1 (single isomer, unassigned) [Compound 374] | < 6.30 | < 5.00 | < 6.00 | C (an IC50 ratio of less than 3 fold) | < 6.30 | < 6.00 | < 6.30 |  | 
C[C@@H]1CC[C@@H](c2cccc(N(C)C)c2)N(C(=O)C(=O)Nc2cncc(C(N)=O)c2)C1 (single isomer, unassigned) [Compound 375] | 6.30 to 7.30 | 5.00 to 6.00 | > 7.00 | A (an IC50 ratio greater than or equal to 10 fold) | > 7.30 | < 6.00 | 6.30 to 7.30 |  | 
C[C@H]1CC[C@H](c2ccc3c(c2)C[C@H](C)O3)N(C(=O)C(=O)Nc2cncc(C(N)=O)c2)C1 (single isomer, unassigned) [Compound 376] | < 6.30 | < 5.00 | < 6.00 | C (an IC50 ratio of less than 3 fold) | < 6.30 | < 6.00 | < 6.30 |  | 
C[C@H]1CC[C@H](c2ccc3c(c2)C[C@@H](C)O3)N(C(=O)C(=O)Nc2cncc(C(N)=O)c2)C1 (single isomer, unassigned) [Compound 377] | < 6.30 | < 5.00 | < 6.00 | C (an IC50 ratio of less than 3 fold) | < 6.30 | < 6.00 | < 6.30 |  | 
Cc1cc(NC(=O)C(=O)N2CC[C@H](C#N)C[C@@H]2c2ccccc2)cnc1N (single isomer, unassigned) [Compound 380] | < 6.30 | < 5.00 | < 6.00 | C (an IC50 ratio of less than 3 fold) | < 6.30 | < 6.00 | < 6.30 |  | 
C[C@@H]1CC[C@@H](c2ccc(N)cc2)N(C(=O)C(=O)Nc2cncc(C(N)=O)c2)C1 (single isomer, unassigned) [Compound 381] | 6.30 to 7.30 | > 6.00 | > 7.00 | A (an IC50 ratio greater than or equal to 10 fold) | > 7.30 | < 6.00 | > 7.30 |  | 
